As usually defined, the Ki is the equilibrium dissociation constant of an inhibitor or competing ligand from its target. By IC50 is commonly meant the concentration that inhibits the measured activity by half.

These results are taken from publication PMC8471300, “A Computational Workflow for the Identification of Novel Fragments Acting as Inhibitors of the Activity of Protein Kinase CK1δ” (International Journal of Molecular Sciences, 2021).

Structures are written as SMILES. Where two headings read alike, the source gives them in different places.

Assay [1] has as its target CK1δ. Details: method as in PMID 21336281. The settings on record: cited from earlier work.
Assay [2] addresses T1, CK1δ (aa 1-294) (Homo sapiens, UniProt P48730).
T1 construct: Compounds were evaluated towards CK1δ (aa 1-294, Merck Millipore); purchased Merck Millipore
T1 sequence (P48730 1-294): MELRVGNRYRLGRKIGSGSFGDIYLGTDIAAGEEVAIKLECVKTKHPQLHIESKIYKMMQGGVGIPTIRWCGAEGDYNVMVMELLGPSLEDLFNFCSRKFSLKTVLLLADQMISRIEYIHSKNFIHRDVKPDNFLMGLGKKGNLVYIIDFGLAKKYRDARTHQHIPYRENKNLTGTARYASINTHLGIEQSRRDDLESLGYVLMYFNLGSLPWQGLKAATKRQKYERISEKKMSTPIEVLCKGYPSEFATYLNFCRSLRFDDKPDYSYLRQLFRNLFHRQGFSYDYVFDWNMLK
Put plainly: CK1δ KinaseGlo luminescence enzymatic assay. The assay is classed as biochemical. The settings on record: for remaining activity at 40 µM: ligand at 40 μM, mean of two independent experiments in duplicate, read-out: % CK1δ residual activity - fixed dose 40 μM; for IC50: mean of three independent experiments, 95% confidence limits in brackets, 4 μM ATP, 0.1% casein. The method, then: Fragments were tested against CK1δ using a luminescent-based assay.
Compounds were evaluated towards CK1δ (aa 1-294, Merck Millipore, Frankfurter Strasse 250, Darmstadt, 64293, Germany) with the KinaseGlo® luminescence assay (Promega Corporation, 2800 Woods Hollow Road Madison, WI 53711, USA) following procedures reported in the literature. In detail, luminescent assays were performed in white 96-well plates, using the following buffer: 50 mM HEPES (pH 7.5),1 mM EDTA, 1 mM EGTA, and 15 mM MgCl2. […] In a typical assay, 10 μL of inhibitor solution (dissolved in DMSO at 10 mM concentration and diluted in assay buffer to the desired concentration) and 10 μL (16 ng) of enzyme solution were added to each well, followed by 20 μL of assay buffer containing 0.1% casein substrate and 4 μM ATP.
After 60 min of incubation at 30 °C, the enzymatic reactions were stopped with 40 μL of KinaseGlo® reagent (Promega). The luminescence signal (relative light unit, RLU) was recorded after 10 min at 25 °C using Tecan Infinite M100. […] Two independent experiments were performed in duplicate and the corresponding residual activity of CK1δ was obtained. Data were analyzed using Excel and reported as the mean of the two experiments with standard deviation. For IC50 determination ten different inhibitor concentrations ranging from 100 to0.026 μM were used and each point was assessedin duplicate. IC50 values are the mean of three independent experiments and 95% confidence limits were also reported. Data were analyzed using GraphPad Prism software (version 8.0).
For orientation: Kinase-Glo measures the ATP left after a reaction by luminescence.

The target in assay [3] is CK1δ. Also noted: method as in PMID 19825801. The settings on record: cited from earlier work.
Assay [4] has as its target ALK kinase. Details: method as in PMID 19825801. The settings on record: cited from earlier work.

In the case of `O=C(Nc1n[nH]c2ccc(-c3cn(Cc4ccccc4)nn3)cc12)c1ccccc1` [CHEMBL1999931], the Ki in assay [1] (multikinase inhibitor with 3-amino-indazole scaffold) is 0.316 µM. `CSc1c[nH]c2ncnc(NCCCO)c12` [CHEMBL2000114]: the Ki in assay [1] (same kinome scan from Abbott Labs) is 1 µM. Turning to `N#Cc1c(N)nsc1N1CCOCC1` [Compound 28], in assay [2], the remaining activity at 40 µM stood at 37.8% and half-maximal inhibition (IC50) was put at 3.31 µM. As for `Nc1ncnc2sc3c(c12)CCCC3` [Compound 37], in assay [2], the remaining activity at 40 µM came to 23.8% and the IC50 worked out at 12.7 µM. For `Nc1n[nH]c2cc(Cl)ccc12` [Compound 38], in assay [2], the remaining activity at 40 µM is 24.4% and 20.5 µM corresponded to half-maximal inhibition (IC50). For `Cc1c(C)n(-c2cccnc2)c2ncnc(N)c12` [Compound 52], in that order: 28.3% and 13.5 µM. For the molecule `Nc1ncnc2nccc(O)c12` [Compound 59], in assay [2], the remaining activity at 40 µM was 24.7% and inhibition was half-maximal at 13.9 µM (IC50). `Nc1nsc(Nc2ccccc2)n1` [Compound 62]: in assay [2], the remaining activity at 40 µM was 28.1% and the half-inhibitory concentration (IC50) is 18.1 µM.

Turning to `Nc1n[nH]c2cccc(F)c12` [Compound 63], in assay [2], the remaining activity at 40 µM worked out at 35.4% and it took 24.9 µM to reach half-maximal inhibition (IC50).

As to `CNC(=O)c1c(F)cccc1Nc1nc(Nc2cc3c(cc2OC)CCN3C(=O)CN(C)C)nc2[nH]ccc12` [GSK1838705A], the Ki in assay [3] was 3.5 µM. Moreover, the IC50 in assay [4] is […].
